Reference: patent US9173875B2, “Treatment for nicotine-induced lung disease using peroxisome proliferator-activated receptor gamma agonists” (Los Angeles Biomedical Research Institute at Harbor-UCLA …, priority 2006, dated 2015)
Where two headings read alike, the source gives them in different places.

What was measured:
WI38 cells [1] = assay: Triglyceride uptake assay ([3H]triolein) in WI38 cells; assay type: cell-based, human
Protocol: The human embryonic cell line WI38 was obtained from American Type Culture Collection (Rockville, Md.). Cells were grown in MEM plus 10% FBS at 37° C. in six-well plates, four-well slides, and 60- and 100-mm culture dishes as needed.
The method used to quantitate triglyceride uptake by fetal rat lung fibroblasts has been described previously (Torday et al. (1995) Biochim Biophys Acta 1254: 198-206). Briefly, culture medium was replaced with DMEM containing 20% adult rat serum mixed with [3H]triolein (5 μCi/ml). The cells were incubated at 37° C. in 5% CO2+balance air for 4 h. At the termination of the incubation, the medium was decanted, the cells were rinsed twice with 1 ml of ice-cold MEM, and the cells were removed from the culture plate after a 5- to 10-min incubation with 2 ml of a 0.05% trypsin solution. An aliquot of the cell suspension was taken for protein assay (Bradford (1976) Anal Biochem 72: 248-254), and the remaining cell suspension was extracted for neutral lipid content.

PTHrP receptor = target: T1, PTHrP receptor (Homo sapiens, UniProt Q03431); assay: PTHrP receptor binding assay
T1 construct: 10-12 μg membrane protein; endogenous in cells; host or cells: WI38 human embryonic lung fibroblasts (inferred; the assay text only says membrane protein)
T1 sequence (Q03431 27-593): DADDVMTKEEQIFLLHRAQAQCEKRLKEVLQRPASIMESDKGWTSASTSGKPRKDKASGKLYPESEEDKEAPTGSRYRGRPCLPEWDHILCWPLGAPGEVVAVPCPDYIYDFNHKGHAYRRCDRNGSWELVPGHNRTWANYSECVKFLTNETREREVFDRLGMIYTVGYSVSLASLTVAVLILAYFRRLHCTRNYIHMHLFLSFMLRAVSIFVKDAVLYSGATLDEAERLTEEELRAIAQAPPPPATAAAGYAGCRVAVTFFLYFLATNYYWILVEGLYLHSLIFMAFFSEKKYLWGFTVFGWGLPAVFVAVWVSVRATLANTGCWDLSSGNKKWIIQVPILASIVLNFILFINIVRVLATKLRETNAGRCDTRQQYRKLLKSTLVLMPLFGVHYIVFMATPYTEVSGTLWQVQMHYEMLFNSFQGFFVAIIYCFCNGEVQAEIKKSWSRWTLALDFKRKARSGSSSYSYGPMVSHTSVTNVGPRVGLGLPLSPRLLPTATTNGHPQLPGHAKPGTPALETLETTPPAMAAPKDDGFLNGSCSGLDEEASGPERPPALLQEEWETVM
Protocol: The receptor binding assay was carried out as previously described (Torday and Rehan (2002) Am. J. Physiol. Lung Cell Mol. Physiol. 283: L130-L135; Torday and Rehan (2003) Cell Biochem Biophys 37: 235-246). The assay mixture, in a total volume of 0.1 ml, contained 50 mM Tris.HCl (pH 7.4), 2 mM dithiothreitol, 10 mM EDTA, 10 μg/ml each of protease inhibitors (leupeptin, pepstatin, antipain, and aprotinin), 0.5 mM phenylmethylsulfonyl fluoride, 10 mg/ml BSA, 5 mM MgCl2, […] [1251]-Tyr34-PTHrP-(1-34) (specific activity 1,064 Ci/mmol), 10-12 μg membrane protein, and 1×10-10 to 1×10^−6 M PTHrP-(1-34). Triplicate samples were incubated for 30 min at 30° C. Reactions were stopped by the addition of 0.1 ml of homogenization buffer containing 20 mg/ml of BSA and placed in ice-cold water for 30 min, followed by centrifugation at 15,000 g for 1 min. The supernatant was aspirated, and the pellet was counted for radioactive content with a gamma counter (model 1470; Wallace, Gaithersburg, Md.). Nonspecific binding was determined in the presence of 1 μM nonradioactive PTHrP-(1-34). Specific binding of [^125I]-Tyr34-PTHrP-(1-34) was calculated as total binding minus nonspecific binding and expressed as femtomoles per milligrams of protein. […] The effect of nicotine (1×10^−6 M) on PTHrP receptor binding was examined without and with the nACh receptor antagonists D-tubocurarine, α-bungarotoxin, or mecamylamine (1×10^−9 to 1×10^−6 M).

[2] = tested on: fetal alveolar type II (ATII) cells; assay: In vivo ATII cell proliferation assay (PCNA and SP-C double labeling) after in utero nicotine; design: species or system Sprague-Dawley rat
fetal ATII cells = assay: Ex vivo ATII cell proliferation assay (tetrazolium dye) after in utero nicotine; design: species or system Sprague-Dawley rat
Protocol: Pathogen-free timed (embryonic day 0=day of mating) pregnant Sprague-Dawley rats (200-250 g body wt) were obtained from Charles River (Hollister, Calif.) at embryonic day 3 and allowed to acclimatize until embryonic day 6. […] The fetuses were extracted by cesarean section, and the lungs were snap frozen for later analysis or processed for ATII cell or fibroblast culture. […] Louis, Mo.; 0.25 mg/kg). All studies were approved by the Los Angeles Biomedical Research Institute Institutional Review Board and were conducted in accordance with the National Institutes of Health Guide for the Care and Use of Laboratory Animals. ATII cells were isolated using differential adherence in monolayer culture, as described previously (Battenburg et al. (1990) Biochim. Biophys. Acta 960: 441-456). Briefly, three to five […] used per preparation. The fetuses were delivered via cesarean section, and fetal lungs were placed in Hanks' balanced salt solution without calcium and magnesium. […] A Teflon stirring bar was used to further dissociate the lungs by mechanical disruption of the tissue during incubation in a 37° C. water bath. After the tissue was dispersed into a unicellular suspension, the cells were pelleted at 500 g for 10 min at room temperature in a 50-ml polystyrene centrifuge tube. […] The cell suspension was then added to 75-cm^2 (T-75) culture flasks for 30-60 min to allow for differential adherence of lung fibroblasts. The unattached cells were then transferred to another T-75 culture flask for an additional 60 min. After this second culture period, the medium and nonadherent cells were removed from the flask and diluted with 1 vol of culture medium. This diluted suspension was cultured overnight in a T-75 culture flask at 37° C. in a CO2 incubator to allow the ATII cells to adhere. […] According to the manufacturer's protocol, cell proliferation was determined by the tetrazolium dye assay, which is based on the conversion of a tetrazolium salt to a red formazan product by living cells (Cell Proliferation Assay, Promega).

fetal rat lung explants = assay: In vitro ATII cell proliferation in lung explants (PCNA and SP-C labeling); assay type: cell-based
Protocol: Explants derived from three to five litters of rats were used for each experiment during the course of the studies. Lungs were harvested from fetal rats under sterile conditions. The lung tissue was chopped into −1-mm cubes and incubated in 0.5 ml of Waymouth's MB-252/1 medium containing penicillin (100 U/ml)-streptomycin (100 U/ml) and Fungizone (2.5 μg/ml) in six-well plates while rocking on an oscillating platform (3 cycles/min) in 5% CO2-95% air at 37° C. The explants were allowed to attach for 1-2 h.
Cultured ATII cells or explants were treated with nicotine under various experimental conditions (see below), and cell proliferation was determined by Cell Proliferation Assay (Promega) or dual PCNA and SP-C labeling, respectively (see above).

ATII cells [3] = assay: Phospholipid synthesis ([3H]choline incorporation into saturated phosphatidylcholine) by ATII cells after in utero nicotine; assay type: in vivo, Sprague-Dawley rat
Protocol: (§1) Incorporation of [methyl-3H]choline chloride (NEN Dupont) into saturated phosphatidylcholine was determined in monolayers of cultured explants and ATII cells. […] After incubation, explants and cells were washed three times with ice-cold PBS. The explants and the scraped cells were thoroughly homogenized, and the cellular lipids were extracted with chloroform-methanol (2:1) (Bligh and Dyer (1959) Can. J. Biochem. Physiol., 37: 911-917). The organic phase was dried under a stream of nitrogen at 60° C., resuspended in 0.5 ml of carbon tetrachloride containing 3.5 mg of osmium tetroxide, and left at room temperature for 15 min. The reaction mixture was redried under nitrogen and resuspended in 70 μl of chloroform-methanol (9:1, vol/vol). The lipid extracts were transferred to silica gel plates (Kodak, Rochester, N.Y.) and developed in a chloroform-methanolwater (65:25:4) solvent system. Pure dipalmitoyl phosphatidylcholine was used as the chromatographic standard. The developed plates were stained with bromothymol blue, blotted, and vacuum dried for 5 min at 90° C. Chromatogram spots corresponding to the migration of saturated phosphatidylcholine were scraped from the plates and counted by liquid scintillation spectrometry. The amounts of [methyl^3H]choline chloride incorporated into saturated phosphatidylcholine were expressed as disintegrations per minute per milligram of protein.

ATII cells [4] = assay: Phospholipid synthesis ([3H]choline incorporation) by ATII cells treated in vitro; assay type: cell-based, rat
Protocol: Isolated ATII cells were cultured in DMEM+10% FBS in 6- and 96-well plates, 100-mm dishes, and T-75 flasks, as needed, and maintained at 37° C. in a humidified incubator containing 5% CO2-95% air. At 80-90% confluence, cells were processed for cell proliferation, differentiation, and metabolic studies (see below).
as §1

ATII cells [5] = assay: Western analysis of CCT-α and SP-B in ATII cells after in utero nicotine; assay type: in vivo, Sprague-Dawley rat
Protocol: Pathogen-free timed (embryonic day 0=day of mating) pregnant Sprague-Dawley rats (200-250 g body wt) were obtained from Charles River (Hollister, Calif.) at embryonic day 3 and allowed to acclimatize until embryonic day 6. […] The fetuses were extracted by cesarean section, and the lungs were snap frozen for later analysis or processed for ATII cell or fibroblast culture. […] Louis, Mo.; 0.25 mg/kg). All studies were approved by the Los Angeles Biomedical Research Institute Institutional Review Board and were conducted in accordance with the National Institutes of Health Guide for the Care and Use of Laboratory Animals. Protein extraction and Western blot analysis for SP-B and choline phosphate cytidylyltransferase-α (CCT-α) were performed using standard methods. […] Chemicon) overnight at 4° C. The antibody for CCT-α (1:2,000 dilution) was a kind gift from Dr. […] (University of Iowa, Iowa City, Iowa). […] The density of the SP-B and CCT-α bands was quantified using a scanning densitometer (Eagle Eye, Stratagene).

ATII cells [6] = assay: Western analysis of CCT-α and SP-B in ATII cells treated in vitro; assay type: cell-based, rat
Protocol: Protein extraction and Western blot analysis for SP-B and choline phosphate cytidylyltransferase-α (CCT-α) were performed using standard methods. […] Equal amounts of the protein from the supernatant were dissolved in electrophoresis sample buffer and subjected to SDS-polyacrylamide (4-12% gradient) gel electrophoresis followed by electrophoretic transfer to a nitrocellulose membrane. The membrane was blocked with 5% milk in 1× Tris-buffered saline containing 0.1% Tween 20 for 1 h and then incubated with rabbit anti-human SP-B polyclonal antibody (1:1,000 dilution; Chemicon) overnight at 4° C. The antibody for CCT-α (1:2,000 dilution) was a kind gift from Dr. Mallampalli (University of Iowa, Iowa City, Iowa). Subsequently, the membrane was washed with 1× Tris-buffered saline+0.1% Tween 20 and incubated with a 1:3,000 dilution of anti-rabbit horseradish peroxidase-linked whole antibody immunoglobulin G (Amersham, Arlington Heights, Ill.) for 1 h at room temperature, washed again, and developed with a chemiluminescent substrate (ECL, Amersham) following the manufacturer's protocol. The density of the SP-B and CCT-α bands was quantified using a scanning densitometer (Eagle Eye, Stratagene).

WI38 cells [7] = assay: Reversal of nicotine-induced LIF-to-MYF transdifferentiation in WI38 cells, Western analysis; conditions: GW9662 1×10^−5 M pretreatment; nicotine 1×10^−9 M 7 days
Protocol: The human embryonic cell line WI38 was obtained from the American Type Culture Collection (Rockville, Md.). Cells were grown in minimum essential medium (MEM) +10% fetal bovine serum at 37° C. in six-well plates, two well slides, and 60-mm and 100-mm culture dishes, as needed. […] Subsequently, the cells were treated with rosiglitazone (RGZ) (1×10^−5 M) (a PPARγ agonist), PTHrP (5×10^−7 M), or DBcAMP (1×10^−5 M) for 7 days, and the expression of PTHrP receptor, PPARγ, ADRP, calponin, and cSMA was determined by Western analysis and immunohistochemistry. Simultaneously, fibroblast function was characterized by measuring their capacity to take up triglycerides. Some experiments were performed in the presence of a specific PPARγ antagonist, GW9662. Medium containing fresh chemicals was added daily, and at the end of the experimental period the cells were processed as needed.
For Western blotting, cells were lysed using an extraction buffer [10 mM tris (hydroxymethyl) aminomethane (Tris, pH 7.5), 0.25 M sucrose, 1 mM EDTA, 5 mM benzamidine, 2 mM phenylmethylsulfonyl fluoride, and 10 (j.tg/ml each of pepstatin A, aprotinin, and leupeptin], and centrifuged at 140 g for 10 min (4° C.). Equal amounts of the protein (25 μg) from the supernatant were dissolved in electrophoresis sample buffer and were subjected to sodium dodecyl sulfate-polyacrylamide (4%-12% gradient) gel electrophoresis (SDS-PAGE) followed by electrophoretic transfer to a nitrocellulose memane. The nonspecific binding of antibody was blocked by washing with Tris-buffered saline (TBS) containing 0.1% Tween 20 (TBST) and 5% milk for 1 h. The blot was then subjected to two brief washes with TBST plus 0.5% Tween 20, incubated in TBST plus 0.1% Tween 20 and the specific primary antibodies (PPARγ 1:2000, Alexis Biochemicals, San Diego, Calif.; cSMA 1:50,000, Sigma, St. Louis, Mo.: ADRP 1:3000) overnight at 4° C. Blots were then washed in TBST plus 0.1% Tween 20 and then incubated for 1 h in secondary antibody, washed, and developed with a chemiluminescent substrate [enhanced chemiluminescence (ECL); Amersham, Arlington Heights, Ill.] following the manufacturer's protocol. The densities of the specific protein bands were quantified using a scanning densitometer (Eagle Eye II still video system, Stratagene, La Jolla, Calif.).

ATII cells [8] = conditions: rat, in vivo

## COc1cc2c3cc1Oc1cc(ccc1O)C[C@@H]1c4c(cc(OC)c(O)c4Oc4ccc(cc4)C[C@@H]3N(C)CC2)CC[N+]1(C)C [D-tubocurarine]
WI38 cells [1]
  prevention of nicotine-induced decrease in triolein uptake: completely prevented
PTHrP receptor
  prevention of nicotine-induced decrease in PTHrP binding to its receptor: prevented

## O=C(Nc1ccccc1)c1cc([N+](=O)[O-])ccc1Cl [GW9662]
[2]; GW-9662 0.25 mg/kg pretreatment, nicotine + PGJ2
  block of the PGJ2 effect on nicotine-induced increase in ATII cell proliferation: almost completely blocked
[2]; in utero nicotine + PGJ2
  block of the PGJ2 effect on nicotine-induced increase in ATII cell proliferation: 70%
Fetal ATII cells; nicotine + PGJ2
  block of the PGJ2 effect: blocked
Fetal rat lung explants; nicotine 24 h + PGJ2
  block of the PGJ2 effect in lung explants: blocked
ATII cells [3]; concomitant PGJ2 alone or in combination with GW-9662, in utero
  effect on nicotine-induced increase in phospholipid synthesis: no effect
ATII cells [4]; concomitant PGJ2 alone or in combination with GW-9662, in vitro
  effect on nicotine-induced increase in phospholipid synthesis: no effect
ATII cells [5]; PGJ2 alone or in combination with GW-9662, in vivo
  effect on nicotine-induced increase (CCT-α experiment): no effect
ATII cells [5]; concomitant treatment, in utero
  effect on nicotine-induced increase in SP-B protein expression: no effect
ATII cells [6]; PGJ2 alone or in combination with GW-9662, in vitro
  effect on nicotine-induced increase (CCT-α experiment): no effect
ATII cells [6]; in vitro
  effect on nicotine-induced increase in SP-B expression: unaffected
WI38 cells [7]
  block of molecular protection by PTHrP, DBcAMP and RGZ against nicotine-induced LIF-to-MYF transdifferentiation (PPARγ, calponin): completely blocked

## CCCCC[C@H](O)/C=C/[C@H]1C(=O)C=C[C@@H]1C/C=C\CCCC(=O)O [PGJ2, prostaglandin J2]
[2]; rat, in vivo
  block of nicotine-induced increase in ATII cell proliferation: completely blocked
Fetal ATII cells; rat, in vivo
  block of nicotine-induced increase in ATII proliferation: almost completely blocked
Fetal rat lung explants
  block of nicotine-induced increase in ATII cell proliferation in lung explants: blocked
ATII cells [3]; rat, in vivo
  effect on nicotine-induced increase in phospholipid synthesis: no effect
ATII cells [4]
  effect on nicotine-induced increase in phospholipid synthesis: no effect
ATII cells [5]; rat, in vivo
  effect on nicotine-induced increase (CCT-α experiment): no effect
  effect on nicotine-induced increase in SP-B protein expression: no effect
ATII cells [6]
  effect on nicotine-induced increase (CCT-α experiment): no effect
  effect on nicotine-induced increase in SP-B expression: unaffected
ATII cells [8]
  block of nicotine-induced alterations in ribose synthesis: completely blocked
  prevention of nicotine-induced changes in de novo palmitate synthesis and acetyl-CoA labeling: completely prevented

## CNC1(C)C2CCC(C2)C1(C)C (centres unmarked) [mecamylamine]
WI38 cells [1]; nACh receptor antagonist 1×10^−9 or 1×10^−6 M
  prevention of nicotine-induced decrease in triolein uptake: not
PTHrP receptor; pretreatment with nACh receptor antagonist, nicotine 1×10^−6 M
  prevention of nicotine-induced decrease in PTHrP binding to its receptor: not

## PTHrP-(7-34) amide
PTHrP receptor; 1 μM
  binding of radioactive ligand [125I]-Tyr34-PTHrP-(1-34): inhibited

## α-bungarotoxin
WI38 cells [1]
  prevention of nicotine-induced decrease in triolein uptake: completely prevented
PTHrP receptor
  prevention of nicotine-induced decrease in PTHrP binding to its receptor: prevented
